Test results reported in patent publication US20170283425A1, “COMPOUNDS FOR THE INHIBITION OF CYCLOPHILINS AND USES THEREOF” (Merck Patent GmbH, priority 2016, published 2017).

Assays:
CypD [1] = molecular target: T1, CypD (Homo sapiens, UniProt P30405); experiment: CypD binding assay (competition fluorescence polarisation with fluorescein-labelled cyclosporin)
Protocol: The binding capacity of the compounds were measured using a competition Fluorescence-Polarisation based assay with fluorescine labelled cyclosporin. The protocol used was adapted from Hausch et al, Med Chem lett 2010, p 536.

CypD [2] = molecular target: T1, CypD; experiment: SPR binding; conditions: SPR surface; read-out: SPR CypD (KDSS)
Description: Binding was confirmed on an SPR surface using a protocol adapted from Mori et al., J. Biomolecular Screening, 2009 p 419.

T1 sequence (P30405 30-207): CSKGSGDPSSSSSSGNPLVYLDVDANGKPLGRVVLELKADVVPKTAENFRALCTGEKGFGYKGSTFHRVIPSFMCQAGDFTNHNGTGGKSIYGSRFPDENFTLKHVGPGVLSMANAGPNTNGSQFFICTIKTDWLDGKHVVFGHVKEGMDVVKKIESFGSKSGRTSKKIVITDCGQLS

| SMILES | IC50 (CypD [1]) [nM] | Kd (CypD [2]) [nM] |
| --- | --- | --- |
| C[C@H](c1ccccc1)N(C)C(=O)CNC(=O)NCc1ccc2c(c1)[C@H]1C[C@@H](N2)[C@H](O)CO1 [Compound 38, 2-(3-(((2R,3S,6R)-3-hydroxy-2,3,4,6-tetrahydro-1H-2,6-methanobenzo[c][1,5]oxazocin-8-yl)methyl)ureido)-N-methyl-N—((R)-1-phenylethyl)acetamide] | 1000 to 100000 | 1000 to 100000 |
| CCN1Cc2cc(CCC(=O)NCC(=O)N(C)[C@H](C)c3ccccc3)ccc2NCCC1=O [Compound 31, (R)-3-(5-ethyl-4-oxo-1,2,3,4,5,6-hexahydrobenzo[b][1,5]diazocin-8-yl)-N-(2-(methyl(1-phenylethyl)amino)-2-oxoethyl)propanamide] | 1000 to 100000 | 1000 to 100000 |
| CCN1Cc2cc(CCC(=O)NCC(=O)N3CCC[C@@H]3c3ccccc3SC)ccc2NCCC1=O [Compound 11, 3-(5-Ethyl-4-oxo-1,2,3,4,5,6-hexahydro-benzo[b][1,5]diazocin-8-yl)-N-{2-[(R)-2-(2-methylsulfanyl-phenyl)-pyrrolidin-1-yl]-2-oxo-ethyl}-propionamide] | 1000 to 100000 | 1000 to 100000 |
| CCN1Cc2cc(CCC(=O)NCC(=O)N3CCC[C@H]3CO)ccc2NCCC1=O [Compound 34, 3-(5-Ethyl-4-oxo-1,2,3,4,5,6-hexahydro-benzo[b][1,5]diazocin-8-yl)-N-[2-((S)-2-hydroxymethyl-pyrrolidin-1-yl)-2-oxo-ethyl]-propionamide] | 1000 to 100000 | 1000 to 100000 |
| O=C(NCC(=O)N1CCCC1c1ccccc1C(F)(F)F)NCc1ccc2c(c1)[C@H]1C[C@@H](N2)[C@H](O)CO1 (stereo partly drawn) [Compound 4] | < 1000 | < 1000 |
| CSc1ccccc1[C@H]1CCCN1C(=O)CN(C)C(=O)NCc1ccc2c(c1)[C@H]1C[C@@H](N2)[C@H](O)CO1 [Compound 16, 3-((1R,9R,10S)-10-Hydroxy-12-oxa-8-aza-tricyclo[7.3.1.02,7]trideca-2(7),3,5-trien-4-ylmethyl)-1-methyl-1-{2-[(R)-2-(2-methylsulfanyl-phenyl)-pyrrolidin-1-yl]-2-oxo-ethyl}-urea] | 1000 to 100000 | 1000 to 100000 |
| CCN1Cc2cc(CCC(=O)NCC(=O)N3CCCC3c3ccccn3)ccc2NCCC1=O (stereo not drawn) [Compound 28, 3-(5-Ethyl-4-oxo-1,2,3,4,5,6-hexahydro-benzo[b][1,5]diazocin-8-yl)-N-[2-oxo-2-(2-pyridin-2-yl-pyrrolidin-1-yl)-ethyl]-propionamide] | 1000 to 100000 | 1000 to 100000 |
| C[C@H](NC(=O)CCc1ccc2c(c1)[C@H]1C[C@@H](N2)[C@H](O)CO1)C(=O)N1CCCC1 [Compound 6, 3-((2R,3S,6R)-3-hydroxy-2,3,4,6-tetrahydro-1H-2,6-methanobenzo[c][1,5]oxazocin-8-yl)-N—((S)-1-oxo-1-(pyrrolidin-1-yl)propan-2-yl)propanamide] | 1000 to 100000 | 1000 to 100000 |
| CSc1ccccc1[C@H]1CCCN1C(=O)CNC(=O)CCc1ccc2c(c1)[C@H]1C[C@@H](N2)[C@H](O)CO1 [Compound 5, 3-((1R,9R,10S)-10-Hydroxy-12-oxa-8-aza-tricyclo[7.3.1.02,7]trideca-2(7),3,5-trien-4-yl)-N-{2-[(R)-2-(2-methylsulfanyl-phenyl)-pyrrolidin-1-yl]-2-oxo-ethyl}-propionamide] | < 1000 | < 1000 |
| CCN1Cc2cc(CCC(=O)NCC(=O)N3CCC[C@@H]3CO)ccc2NCCC1=O [Compound 33, 3-(5-Ethyl-4-oxo-1,2,3,4,5,6-hexahydro-benzo[b][1,5]diazocin-8-yl)-N-[2-(®-2-hydroxymethyl-pyrrolidin-1-yl)-2-oxo-ethyl]-propionamide] | 1000 to 100000 | 1000 to 100000 |
| CCN1Cc2cc(CNC(=O)NCC(=O)N3CCCC3c3ccccn3)ccc2NCCC1=O (stereo not drawn) [Compound 36, 1-(5-Ethyl-4-oxo-1,2,3,4,5,6-hexahydro-benzo[b][1,5]diazocin-8-ylmethyl)-3-[2-oxo-2-(2-pyridin-2-yl-pyrrolidin-1-yl)-ethyl]-urea] | 1000 to 100000 | 1000 to 100000 |
| O=C(NCC(=O)N1CCCC1c1ccccc1C(F)(F)F)NCc1ccc2c(c1)[C@@H]1C[C@H](N2)[C@H](O)CO1 (stereo partly drawn) [Compound 17, 1-(((2S,3S,6S)-3-hydroxy-2,3,4,6-tetrahydro-1H-2,6-methanobenzo[c][1,5]oxazocin-8-yl)methyl)-3-(2-oxo-2-(2-(2-(trifluoromethyl)phenyl)pyrrolidin-1-yl)ethyl)urea] | 1000 to 100000 | 1000 to 100000 |
| CCN1Cc2cc(CNC(=O)NCC(=O)N3CCC[C@@H]3c3ccccc3SC)ccc2NCCC1=O [Compound 3, 1-(5-Ethyl-4-oxo-1,2,3,4,5,6-hexahydro-benzo[b][1,5]diazocin-8-ylmethyl)-3-{2-[(R)-2-(2-methylsulfanyl-phenyl)-pyrrolidin-1-yl]-2-oxo-ethyl}-urea] | < 1000 | < 1000 |
| CCN1Cc2cc(CCC(=O)NCC(=O)N3CCCC4(CCCCC4)C3)ccc2NCCC1=O [Compound 25, N-[2-(2-Aza-spiro[5.5]undec-2-yl)-2-oxo-ethyl]-3-(5-ethyl-4-oxo-1,2,3,4,5,6-hexahydro-benzo[b][1,5]diazocin-8-yl)-propionamide] | 1000 to 100000 | 1000 to 100000 |
| CCn1nnc(CNC(=O)NCc2ccc3c(c2)[C@H]2C[C@@H](N3)[C@H](O)CO2)n1 [Compound 39, 1-((2-ethyl-2H-tetrazol-5-yl)methyl)-3-(((2R,3S,6R)-3-hydroxy-2,3,4,6-tetrahydro-1H-2,6-methanobenzo[c][1,5]oxazocin-8-yl)methyl)urea] | 1000 to 100000 | 1000 to 100000 |
| CCN1Cc2cc(CNC(=O)NCC(=O)N3CCC[C@H]3CO)ccc2NCCC1=O [Compound 22, 1-(5-Ethyl-4-oxo-1,2,3,4,5,6-hexahydro-benzo[b][1,5]diazocin-8-ylmethyl)-3-[2-((S)-2-hydroxymethyl-pyrrolidin-1-yl)-2-oxo-ethyl]-urea] | 1000 to 100000 | 1000 to 100000 |
| CN(C(=O)CNC(=O)NCc1ccc2c(c1)[C@H]1C[C@@H](N2)[C@H](O)CO1)C1CCCC1 [Compound 20, N-cyclopentyl-2-(3-(((2R,3S,6R)-3-hydroxy-2,3,4,6-tetrahydro-1H-2,6-methanobenzo[c][1,5]oxazocin-8-yl)methyl)ureido)-N-methylacetamide] | 1000 to 100000 | 1000 to 100000 |
| CCN1Cc2cc(CCC(=O)N[C@@H](CO)C(=O)N3CCCC3)ccc2NCCC1=O [Compound 29, 3-(5-Ethyl-4-oxo-1,2,3,4,5,6-hexahydro-benzo[b][1,5]diazocin-8-yl)-N—((S)-1-hydroxymethyl-2-oxo-2-pyrrolidin-1-yl-ethyl)-propionamide] | 1000 to 100000 | 1000 to 100000 |
| CCN1Cc2cc(CNC(=O)NCC(=O)N3CCC[C@@H]3C(F)(F)F)ccc2NCCC1=O [Compound 24, 1-(5-Ethyl-4-oxo-1,2,3,4,5,6-hexahydro-benzo[b][1,5]diazocin-8-ylmethyl)-3-[2-oxo-2-((R)-2-trifluoromethyl-pyrrolidin-1-yl)-ethyl]-urea] | 1000 to 100000 | 1000 to 100000 |
| CCN1Cc2cc(CCC(=O)NCC(=O)N3CCC[C@@H]3C(F)(F)F)ccc2NCCC1=O [Compound 30, 3-(5-Ethyl-4-oxo-1,2,3,4,5,6-hexahydro-benzo[b][1,5]diazocin-8-yl)-N-[2-oxo-2-((R)-2-trifluoromethyl-pyrrolidin-1-yl)-ethyl]-propionamide] | 1000 to 100000 | 1000 to 100000 |
| O=C(NCC(=O)N1CCC[C@H]1CO)NCc1ccc2c(c1)[C@H]1C[C@@H](N2)[C@H](O)CO1 [Compound 13, 1-(((2R,3S,6R)-3-hydroxy-2,3,4,6-tetrahydro-1H-2,6-methanobenzo[c][1,5]oxazocin-8-yl)methyl)-3-(2-((S)-2-(hydroxymethyl)pyrrolidin-1-yl)-2-oxoethyl)urea] | 1000 to 100000 | 1000 to 100000 |
| CCN1Cc2cc(CCC(=O)NCC(=O)N3CCCC3c3ccccc3C(F)(F)F)ccc2NCCC1=O (stereo not drawn) [Compound 19, 3-(5-Ethyl-4-oxo-1,2,3,4,5,6-hexahydro-benzo[b][1,5]diazocin-8-yl)-N-{2-oxo-2-[2-(2-trifluoromethyl-phenyl)-pyrrolidin-1-yl]-ethyl}-propionamide] | 1000 to 100000 | 1000 to 100000 |
| CCN1Cc2cc(CNC(=O)NCC(=O)N(C)[C@H](C)c3ccccc3)ccc2NCCC1=O [Compound 35, (R)-2-(3-((5-ethyl-4-oxo-1,2,3,4,5,6-hexahydrobenzo[b][1,5]diazocin-8-yl)methyl)ureido)-N-methyl-N-(1-phenylethyl)acetamide] | 1000 to 100000 | 1000 to 100000 |
| CCN1Cc2cc(CNC(=O)NCC(=O)N3CCCC3c3ccccc3C(F)(F)F)ccc2NCCC1=O (stereo not drawn) [Compound 15, 1-(5-Ethyl-4-oxo-1,2,3,4,5,6-hexahydro-benzo[b][1,5]diazocin-8-ylmethyl)-3-{2-oxo-2-[2-(2-trifluoromethyl-phenyl)-pyrrolidin-1-yl]-ethyl}-urea] | 1000 to 100000 | 1000 to 100000 |
| CCN1Cc2cc(CCC(=O)N[C@H](C(=O)N3CCCC3)c3ccccc3)ccc2NCCC1=O [Compound 32, 3-(5-Ethyl-4-oxo-1,2,3,4,5,6-hexahydro-benzo[b][1,5]diazocin-8-yl)-N—((S)-2-oxo-1-phenyl-2-pyrrolidin-1-yl-ethyl)-propionamide] | 1000 to 100000 | 1000 to 100000 |
| O=C(NCC(=O)N1CCCC1c1cccnc1)NCc1ccc2c(c1)[C@H]1C[C@@H](N2)[C@H](O)CO1 (stereo partly drawn) [Compound 18, 1-((1R,9R,10S)-10-Hydroxy-12-oxa-8-aza-tricyclo[7.3.1.02,7]trideca-2(7),3,5-trien-4-ylmethyl)-3-[2-oxo-2-(2-pyridin-3-yl-pyrrolidin-1-yl)-ethyl]-urea] | 1000 to 100000 | 1000 to 100000 |
| O=C(NCC(=O)N1CCC[C@@H]1C(F)(F)F)NCc1ccc2c(c1)[C@H]1C[C@@H](N2)[C@H](O)CO1 [Compound 8, 1-(((2R,3S,6R)-3-hydroxy-2,3,4,6-tetrahydro-1H-2,6-methanobenzo[c][1,5]oxazocin-8-yl)methyl)-3-(2-oxo-2-((R)-2-(trifluoromethyl)pyrrolidin-1-yl)ethyl)urea] | 1000 to 100000 | 1000 to 100000 |
